Assay results as given in patent publication US9695155B2, “Herbicidal substituted pyrimidinyloxy benzene compounds” (E. I. DU PONT DE NEMOURS AND COMPANY, priority 2013, dated 2017).

Assays:
[1] = tested on: kochia; assay: Test C postemergence; assay type: in vivo, Kochia scoparia
In short: (§1)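 Seeds are planted in blended loam soil and sand and treated preemergence, while seedlings in a peat moss/vermiculite medium receive postemergence sprays at 2 to 18 cm height. All plants stay in the greenhouse for 13 to 15 days before visual comparison with controls on a 0–100 scale.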

[2] = tested on: corn; assay: Test A postemergence; assay type: in vivo, Zea mays; details: 0 to 100 scale where 0 is no effect and 100 is complete control
In short: (§2)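 Greenhouse pot test, loam/sand soil. Formulation: non-phytotoxic solvent mix plus surfactant. Pre: directed spray onto soil after sowing. Post: plants at 1–2 leaf, 2–10 cm. Rated visually vs untreated controls at ~10 d, 0 (no effect) to 100 (complete control).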

[3] = tested on: wild oat; assay: Test C postemergence; assay type: in vivo, Avena fatua
In short: as §1

[4] = tested on: large (Lg) crabgrass; assay: Test A postemergence; assay type: in vivo, Digitaria sanguinalis; details: 0 to 100 scale where 0 is no effect and 100 is complete control
In short: as §2

[5] = tested on: yellow nutsedge; assay: Test C postemergence; assay type: in vivo, Cyperus esculentus
In short: as §1

[6] = tested on: morningglory; assay: Test C postemergence; assay type: in vivo, Ipomoea coccinea
In short: as §1

[7] = tested on: pigweed; assay: Test C postemergence; assay type: in vivo, Amaranthus retroflexus
In short: as §1

[8] = tested on: large (Lg) crabgrass; assay: Test A preemergence; assay type: in vivo, Digitaria sanguinalis
In short: as §2

[9] = tested on: velvetleaf; assay: Test A postemergence; assay type: in vivo, Abutilon theophrasti; details: 0 to 100 scale where 0 is no effect and 100 is complete control
In short: as §2

[10] = tested on: giant foxtail; assay: Test A postemergence; assay type: in vivo, Setaria faberii; details: 0 to 100 scale where 0 is no effect and 100 is complete control
In short: as §2

[11] = tested on: giant foxtail; assay: Test A preemergence; assay type: in vivo, Setaria faberii
In short: as §2

[12] = tested on: morningglory; assay: Test A preemergence; assay type: in vivo, Ipomoea spp.
In short: as §2

[13] = tested on: rice; assay: Test B flooded paddy test; assay type: in vivo, Oryza sativa; details: Flood, 250 g ai/ha; 0 to 100 scale where 0 is no effect and 100 is complete control
In short: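 Seedlings are raised to two leaves, flooded to a depth of 3 cm and dosed by adding the compound to the floodwater. Water level is kept constant, and plants are scored visually versus controls 13–15 days later (0 = no effect, 100 = complete control).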

[14] = tested on: Italian ryegrass; assay: Test C postemergence; assay type: in vivo, Lolium multiflorum
In short: as §1

[15] = tested on: wheat; assay: Test A preemergence; assay type: in vivo, Triticum aestivum
In short: as §2

[16] = 31 g ai/ha, postemergence, visual rating, scale 0 to 100 (0 no effect, 100 complete control), 13 to 15 days
[17] = 125 g ai/ha, postemergence, visual rating, scale 0 to 100 (0 no effect, 100 complete control)
[18] = Postemergence, 62 g ai/ha, scale 0 to 100 (0 no effect, 100 complete control), 13 to 15 days
[19] = 500 g ai/ha, 0 to 100 scale where 0 is no effect and 100 is complete control

N#Cc1cnn(-c2c(C#N)cccc2Oc2ncc(Cl)cn2)c1 [Compound 200]
Kochia plant response rating [1, 16]: 80
Plant response rating, Kochia [1, 17]: 98
Plant response rating (0 to 100), Kochia ([1]; 250 g ai/ha, postemergence): 100
Plant response rating, Kochia [1, 18]: 95
Corn plant response rating ([2]; 125 g ai/ha): 50
Plant response rating, Corn ([2]; 500 g ai/ha): 60
Oat, Wild plant response rating [3, 16]: 15
Plant response rating, Oat, Wild [3, 17]: 25
Plant response rating (0 to 100), Oat, Wild ([3]; 250 g ai/ha, postemergence): 20
Plant response rating, Oat, Wild [3, 18]: 15
Crabgrass, Large plant response rating ([4]; 125 g ai/ha): 90
Plant response rating, Crabgrass, Large ([4]; 500 g ai/ha): 90
Nutsedge, Yellow plant response rating [5, 16]: 5
Plant response rating, Nutsedge, Yellow [5, 17]: 30
Plant response rating (0 to 100), Nutsedge, Yellow ([5]; 250 g ai/ha, postemergence): 35
Plant response rating, Nutsedge, Yellow [5, 18]: 5
Morningglory plant response rating [6, 16]: 85
Plant response rating, Morningglory [6, 17]: 95
Plant response rating (0 to 100), Morningglory ([6]; 250 g ai/ha, postemergence): 95
Plant response rating, Morningglory [6, 18]: 80
Pigweed plant response rating [7, 16]: 75
Plant response rating, Pigweed [7, 17]: 95
Plant response rating (0 to 100), Pigweed ([7]; 250 g ai/ha, postemergence): 95
Plant response rating, Pigweed [7, 18]: 90
Crabgrass, Large plant response rating (0 to 100 scale) ([8]; 125 g ai/ha): 100
Crabgrass, Large plant response rating [8, 19]: 100
Velvetleaf plant response rating ([9]; 125 g ai/ha): 100
Plant response rating, Velvetleaf ([9]; 500 g ai/ha): 100
Foxtail, Giant plant response rating ([10]; 125 g ai/ha): 90
Plant response rating, Foxtail, Giant ([10]; 500 g ai/ha): 90
Foxtail, Giant plant response rating (0 to 100 scale) ([11]; 125 g ai/ha): 100
Foxtail, Giant plant response rating [11, 19]: 100
Morningglory plant response rating (0 to 100 scale) ([12]; 125 g ai/ha): 90
Morningglory plant response rating [12, 19]: 100
Plant response rating, Rice [13]: 20
Ryegrass, Italian plant response rating [14, 16]: 5
Plant response rating, Ryegrass, Italian [14, 17]: 5
Plant response rating (0 to 100), Ryegrass, Italian ([14]; 250 g ai/ha, postemergence): 5
Plant response rating, Ryegrass, Italian [14, 18]: 10
Wheat plant response rating (0 to 100 scale) ([15]; 125 g ai/ha): 30
Wheat plant response rating [15, 19]: 50
